# Assay results: patent publication US7977481B2, “Pyrimidinyl-thiophene kinase modulators” (SGX Pharmaceuticals, Inc., priority 2005, dated 2011)
# Molecular target: T1, JAK2 JH1JH2 V617F kinase (Homo sapiens, UniProt O60674, V617F)
# T1 construct: JAK2 JH1JH2 V617F kinase; inferred from Ni-NTA capture and imidazole elution; made in house; host or cells: Sf9 insect cells
# Assay: JAK2 Luminescence-Based ATP Depletion Enzyme Assay (JAK2-V617F)
# Assay type: biochemical
# Conditions: 10 μM ATP
# Method: JAK2 Luminescence-Based ATP Depletion Enzyme Assay
# Materials: JAK3tide peptide substrate=GGEEEEYFELVKKKK (Biopeptide, San Diego, Calif.), ATP (Sigma Cat#A-3377, FW=551), HEPES buffer, pH 7.6, 10% Brij 35 (Calbiochem Cat#203728), MgCl2, Staurosporine (Streptomyces sp. Sigma Cat#85660-1MG), white Corning (Costar) 384-well flat bottom plate (VWR Cat#29444-088), JAK2 KD (kinase domain) or JAK2 JH1JH2 V617F kinase (see below), Kinase-Glo™ (Promega Cat#V6712).
# Stock Solutions: 5 mM JAK3tide peptide (9.86 mg/ml in 100 mM HEPES, pH 7.6), stored at −20° C.; 100 mM HEPES buffer, pH 7.6, 10% Brij 35; 10 mM ATP (5.51 mg/ml in 100 mM HEPES, pH 7.6) stored at −20° C. (diluted 50 μl into total of 10 ml 100 mM HEPES, pH 7.6, daily=50 μM ATP working stock); 100 mM MgCl2; 200 μM Staurosporine, 2× Kinase-Glo™ reagent (made fresh or stored at −20° C.).
# Standard Assay Conditions for 384-well format (20 μl kinase reaction, 40 μl detection reaction): 10 mM MgCl2; 0.1 mM JAK3tide peptide (or, 0.5 mM JAK3tide peptide for JAK2 JH1JH2 V617F assay); 1 μl test compound (in 100% DMSO); 0.4 μg/ml JAK2 KD kinase or 12 μg/ml JAK2 JH1JH2 V617F kinase; 10 μM ATP; 100 mM HEPES+0.01% Brij, pH 7.6. Positive controls contained 5% DMSO with no test compound. Negative controls contained 10 μM staurosporine. The kinase reactions were initiated at time t=0 by the addition of ATP. Kinase reactions were incubated at 21-23° C. for 30 min, after which 20 μl of Kinase-Glo™ reagent were added to each well to quench the kinase reaction and initiate the luminescence reaction. After a 20 min incubation at 21-23° C., the luminescence was detected in a plate-reading luminometer (Tecan Ultra Evolution).
# The pellet of Sf9 insect cells produced from a 6 L expression of Jak2 was resuspended in a buffer containing 50 mM Tris-HCl pH 8.5, 250 mM NaCl, 5% Glycerol, 0.2% β-octylglucoside, 5 mM β-mercaptoethanol (or with ligand added to the buffer eg. 5 mM ATP and 10 mM MgCl2; 0.05 mM compound of the invention) in a volume of approximately 40 mL per 1 L of original culture. One tablet of Roche Complete, EDTA-free protease inhibitor cocktail (Cat. #1873580) was added per 1 L of original culture. The suspension was then stirred for 1 hour at 4° C. Debris was removed by centrifugation for 30 minutes at 39,800 g at 4° C. The supernatant was decanted into a 500 mL beaker and 10 mL of 50% Qiagen Ni-NTA Agarose (Cat. #30250) pre-equilibrated in 50 mM Tris-HCl pH 8.5, 250 mM NaCl, 5% Glycerol, 0.2% β-octylglucoside, 5 mM β-mercaptoethanol was added and stirred for 30 minutes at 4° C. The sample was poured through a drip column at 4° C. and washed with 10 column volumes (CV) of 50 mM Tris-HCl pH 8.5, 250 mM NaCl, 5% Glycerol, 0.2% β-octylglucoside, 5 mM β-mercaptoethanol. The protein was eluted in 5 mL fractions using 5 CV of the same buffer containing 250-500 mM Imidazole. Fractions were pooled by SDS-PAGE analysis and the protein concentration determined by a Bradford assay. 5 mM TCEP was added to the pool and the protein sample was concentrated to ˜8 mL by centrifugation in an Amicon Ultra-15 10,000 Da MWCO centrifugal filter unit (Cat. #UFC901024). The concentrated protein was applied to a GE Healthcare HiLoad 16/60 Superdex 75 or 200 prep grade column (Cat. #17-1068-01, Cat. #17-1069-01) equilibrated in 20 mM Tris-HCl pH 8.5, 250 mM NaCl, and 1 mM DTT. Fractions were run on a SDS-PAGE gel and the cleanest fractions were pooled. The protein was concentrated to approximately 6.5-10 mg/mL. Samples in the final buffer (20 mM Tris-HCl pH 8.5, 250 mM NaCl, 1 mM DTT; [or with ligand added eg. 2 mM ATP/5 mM MgCl2 or 0.05 mM compound of the invention]) are delivered fresh to crystallization and stored at 4° C. or flash frozen in liquid nitrogen (as 120 μL aliquots) and stored at −80° C.
# T1 sequence (O60674 536-1132 V617F limits assumed): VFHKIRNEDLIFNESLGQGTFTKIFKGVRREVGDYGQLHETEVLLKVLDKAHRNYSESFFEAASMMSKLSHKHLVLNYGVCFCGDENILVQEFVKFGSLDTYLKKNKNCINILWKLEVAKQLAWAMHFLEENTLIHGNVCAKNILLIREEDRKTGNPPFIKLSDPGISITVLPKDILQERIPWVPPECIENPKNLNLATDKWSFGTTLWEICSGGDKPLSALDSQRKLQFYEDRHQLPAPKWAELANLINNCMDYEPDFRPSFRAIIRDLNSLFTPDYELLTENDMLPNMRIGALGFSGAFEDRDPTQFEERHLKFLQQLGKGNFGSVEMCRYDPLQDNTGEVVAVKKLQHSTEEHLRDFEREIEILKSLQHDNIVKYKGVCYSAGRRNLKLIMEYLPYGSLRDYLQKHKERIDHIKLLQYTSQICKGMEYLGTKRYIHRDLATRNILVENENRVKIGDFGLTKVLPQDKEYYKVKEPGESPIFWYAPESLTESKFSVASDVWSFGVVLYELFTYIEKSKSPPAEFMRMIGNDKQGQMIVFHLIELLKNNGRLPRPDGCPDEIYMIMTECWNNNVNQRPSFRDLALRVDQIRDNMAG
row,Structure (SMILES),IC50 [nM]
1,CCN(CCC#N)C(=O)c1ccc(-c2ccnc(Nc3cccc(C(C)O)c3)n2)s1 (centres unmarked),< 500
2,CC(O)c1cccc(Nc2nccc(-c3ccc(S(=O)(=O)N(C)C)s3)n2)c1 (centres unmarked),< 500
3,CN(C)C1CCN(c2cccc(Nc3nccc(-c4ccc(C(=O)NCc5ccco5)s4)n3)c2)C1 (centres unmarked),< 500
4,CCN(CCC#N)S(=O)(=O)c1ccc(-c2ccnc(Nc3cccc(C)c3)n2)s1,< 500
5,C[C@@H](NC(=O)c1ccc(-c2ccnc(Nc3cccc(CN4CCC(O)CC4)c3)n2)s1)c1ccccc1,< 500
6,CC(O)c1cccc(Nc2nccc(-c3ccc(-c4cccc(CC#N)c4)s3)n2)c1 (centres unmarked),< 500
7,O=C(NCc1ccccc1)c1ccc(-c2ccnc(Nc3ccc(CCO)cc3)n2)s1,< 500
8,CCN(CCC#N)S(=O)(=O)c1ccc(-c2ccnc(Nc3cccc(C(C)O)c3)n2)s1 (centres unmarked),< 500
